Drawing on patent US7863446B2, “Heterocycles” (Orchid Research Laboratories Limited, priority 2006, dated 2011), this text covers inhibition for 18 molecules.

One experiment relates to TNF-α. Nature of the experiment: In vitro measurement of TNF-α in human PBMC (LPS stimulated). To be noted: for inhibition at 1 µM: NA = No activity, read-out: TNF-α Inhibition (%) at Conc. (1 μM); for inhibition at 10 µM: read-out: TNF-α Inhibition (%) at Conc. (10 μM). Type of experiment: cell-based. The method, then: In Vitro Measurement of Tumor Necrosis Factor Alpha (TNF-α)
This assay determines the effect of test compounds on the production of TNF α in human Peripheral Blood Mononuclear Cells (PBMC). Compounds were tested for their ability to inhibit the activity of TNF α in human PBMC. PBMC were isolated from blood (of healthy volunteers) using BD Vacutainer CPT™ (Cell preparation tube, BD Bio Science) and suspended in RPMI medium (Physiol. Res. 52: 593-598, 2003). The test compounds were pre-incubated with PBMC (0.5 million/incubation well) for 15 minutes at 37° C. and then stimulated with Lipopolysaccharide (Escherichia coli: B4; 1 μg/ml) for 18 hours at 37° C. in 5% CO2. The levels of TNF-α in the cell culture medium were estimated using enzyme-linked immunosorbent assay performed in a 96 well format as per the procedure of the manufacturer (Cayman Chemical, Ann Arbor, USA).

A further experiment deals with IL-6. The experiment can be described thus: In vitro measurement of IL-6 in human PBMC (LPS stimulated). As to conditions: for inhibition at 1 µM: read-out: IL-6 Inhibition (%) Conc. (1 μM); for inhibition at 10 µM: read-out: IL-6 Inhibition (%) Conc. (10 μM). Type of experiment: cell-based. As for the experimental part: In Vitro Measurement of Interleukin-6(IL-6)
This assay determins the effect of test compounds on the production of IL-6 in human PBMC (Physiol. Res. 52: 593-598, 2003). Compounds were tested for their ability to inhibit the activity of IL-6 in human PBMC. PBMC were isolated from blood using BD Vacutainer CPT™ Cell preparation tube (BD Bio Science) and suspended in RPMI medium. The test compounds were pre-incubated with PBMC (0.5 million/incubation well) for 15 minutes at 37° C. and then stimulated with Lipopolysaccharide (Escherichia coli: B4; 1 μg/ml) for 18 hours at 37° C. in 5% CO2. The levels of IL-6 in cell culture medium were estimated using enzyme-linked immunosorbent assay performed in a 96 well format as per the procedure of the manufacturer (Cayman Chemical, Ann Arbor, USA).

Experiment [1] has as its target T1, purified recombinant COX-2 (Homo sapiens, UniProt P35354).
T1 sequence (P35354 18-604): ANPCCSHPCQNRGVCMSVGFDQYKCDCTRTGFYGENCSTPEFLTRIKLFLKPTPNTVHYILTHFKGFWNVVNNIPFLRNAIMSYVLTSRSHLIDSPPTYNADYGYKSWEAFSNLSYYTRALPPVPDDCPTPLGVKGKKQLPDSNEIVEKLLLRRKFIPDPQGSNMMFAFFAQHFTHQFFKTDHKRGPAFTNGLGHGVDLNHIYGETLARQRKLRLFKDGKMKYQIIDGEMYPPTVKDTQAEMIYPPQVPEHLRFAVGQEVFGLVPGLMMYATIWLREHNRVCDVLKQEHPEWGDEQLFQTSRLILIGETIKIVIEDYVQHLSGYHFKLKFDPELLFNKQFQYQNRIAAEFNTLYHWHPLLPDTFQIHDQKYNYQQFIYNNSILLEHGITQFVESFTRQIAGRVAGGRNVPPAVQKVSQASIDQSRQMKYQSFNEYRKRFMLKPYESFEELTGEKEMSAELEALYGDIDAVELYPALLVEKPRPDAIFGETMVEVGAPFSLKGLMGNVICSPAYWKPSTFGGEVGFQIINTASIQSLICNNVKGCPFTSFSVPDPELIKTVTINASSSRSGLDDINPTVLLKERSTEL
The experiment can be described thus: COX-2 enzyme based assay. Format: biochemical. As to conditions: NA = No activity, read-out: % Inhibition in rEnzyme Assay COX-2. As for the experimental part: (§1) COX-1 and COX-2 Enzyme Based Assay
(§2) COX-1 and COX-2 enzyme based assays were carried out to check the inhibitory potential of the test compounds on the production of prostaglandin by purified recombinant COX-1/COX-2 enzyme (Proc. Nat. Acad. Sci. USA, 88, 2692-2696, 1991; J. Clin. Immunoassay 15, 116-120, 1992) In this assay, the potential of the test compound to inhibit the production of prostaglandin either by COX-1 or COX-2 from arachidonic acid (substrate) was measured. This was an enzyme based in-vitro assay to evaluate selective COX inhibition with good reproducibility.
(§3) Arachidonic acid was converted to PGH2 (Intermediate product) by COX1/COX-2 in the presence or absence of the test compound. The reaction was carried out at 37° C. and after 2 minutes it was stopped by adding 1M HCl. Intermediate product PGH2 was converted to a stable prostanoid product PGF2αby SnCl2 reduction. The amount of PGF2α, produced in the reaction was inversely proportional to the COX inhibitory potential of the test compound. The prostanoid product was quantified via enzyme immunoassay (EIA) using a broadly specific antibody that binds to all the major forms of prostaglandin, using Cayman ELISA kit as per the procedure outlined by the manufacturer (Cayman Chemicals, Ann Arbor, USA).

The target of experiment [2] is purified recombinant COX-1 (Homo sapiens, UniProt P23219). Nature of the experiment: COX-1 enzyme based assay. To be noted: NA = No activity, read-out: % Inhibition in rEnzyme Assay COX-1. Type of experiment: biochemical. As for the experimental part:
as §1, §2, §3

Chain of purified recombinant COX-1 (P23219 24-599): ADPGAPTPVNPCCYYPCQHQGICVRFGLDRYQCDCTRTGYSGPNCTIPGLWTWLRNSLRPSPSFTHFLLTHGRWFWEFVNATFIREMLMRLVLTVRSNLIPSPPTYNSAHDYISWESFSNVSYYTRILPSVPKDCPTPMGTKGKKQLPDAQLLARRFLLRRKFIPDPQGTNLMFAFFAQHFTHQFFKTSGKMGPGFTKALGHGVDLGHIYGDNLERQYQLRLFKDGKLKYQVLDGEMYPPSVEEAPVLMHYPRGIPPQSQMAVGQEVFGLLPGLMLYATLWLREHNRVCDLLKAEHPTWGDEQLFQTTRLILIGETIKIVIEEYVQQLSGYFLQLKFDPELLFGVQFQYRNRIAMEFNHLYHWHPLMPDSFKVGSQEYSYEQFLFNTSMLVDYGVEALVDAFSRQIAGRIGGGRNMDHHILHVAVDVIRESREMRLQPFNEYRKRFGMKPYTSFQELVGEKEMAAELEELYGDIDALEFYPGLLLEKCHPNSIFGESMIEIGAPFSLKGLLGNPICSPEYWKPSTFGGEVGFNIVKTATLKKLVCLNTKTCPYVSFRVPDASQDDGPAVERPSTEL

The inhibition is the percentage by which the read-out fell short of the control. As for `NNc1nc(C(F)(F)F)nc(-c2cccnc2)c1-c1ccccc1` [Example 11, 4-Hydrazino-5-phenyl-6-pyridin-3-yl-2-(trifluoromethyl)pyrimidine], in the experiment on TNF-α, the inhibition at 1 µM stood at 12.7% and the inhibition at 10 µM is 50.7%.
For `NNc1nc(C(F)(F)F)nc(-c2ccncc2)c1-c1ccccc1` [Example 12, 4-Hydrazino-5-phenyl-6-pyridin-4-yl-2-(trifluoromethyl)pyrimidine] the same measures were 34.8% and 78.4%.
For `NNc1nc(C(F)(F)F)nc(-c2ccncc2)c1-c1ccc(F)cc1` [Example 13, 5-(4-Fluorophenyl)-4-hydrazino-6-pyridin-4-yl-2-(trifluoromethyl)pyrimidine] the same measures were 25.8% and 35.3%.
For `CS(=O)(=O)c1ccc(-c2nc(C(F)(F)F)nc(OS(=O)(=O)CCCCl)c2-c2ccccc2)cc1` [Example 19, 6-[4-(Methylsulfonyl)phenyl]-5-phenyl-2-(trifluoromethyl)pyrimidin-4-yl-3-chloropropane-1-sulfonate], in the experiment on IL-6, the inhibition at 1 µM is 27.9% and the inhibition at 10 µM worked out at 41.9%.
In the case of `CS(=O)(=O)c1ccc(-c2nc(C(F)(F)F)nc(OS(=O)(=O)c3ccc(OC(F)(F)F)cc3)c2-c2ccccc2)cc1` [Example 24, 6-[4-(Methylsulfonyl)phenyl]-5-phenyl-2-(trifluoromethyl)pyrimidin-4-yl-4-trifluoromethoxybenzenesulfonate], in the experiment with TNF-α, the inhibition at 1 µM was determined as 53.9% and the inhibition at 10 µM came to 32.9%.
For `CS(=O)(=O)c1ccc(-c2nc(C(F)(F)F)nc(OS(=O)(=O)c3cccs3)c2-c2ccccc2)cc1` [Example 25, 6-[4-(Methylsulfonyl)phenyl]-5-phenyl-2-(trifluoromethyl)pyrimidin-4-yl thiophene-2-sulfonate] the same measures were 38.8% and 94%.
For `CS(=O)(=O)c1ccc(-c2nc(C(F)(F)F)nc(OS(=O)(=O)c3ccc(F)cc3)c2-c2ccccc2)cc1` [Example 26, 6-[4-(Methylsulfonyl)phenyl]-5-phenyl-2-(trifluoromethyl)pyrimidin-4-yl-4-fluorobenzenesulfonate] the same measures were 32.7% and 50.8%.
For `CS(=O)(=O)c1ccc(-c2nc(C(F)(F)F)nc(OS(=O)(=O)c3ccccc3F)c2-c2ccccc2)cc1` [Example 27, 6-[4-(Methylsulfonyl)phenyl]-5-phenyl-2-(trifluoromethyl)pyrimidin-4-yl-2-fluorobenzenesulfonate] the same measures were 43.5% and 51.9%.
For `NS(=O)(=O)c1ccc(-c2nc(C(F)(F)F)nc(N3CCNCC3)c2-c2ccc(F)cc2)cc1` [Example 31, 4-[5-(4-Fluorophenyl)-6-piperazin-1-yl-2-(trifluoromethyl)pyrimidin-4-yl]benzenesulfonamide], in the experiment with TNF-α, the inhibition at 1 µM is 37.4% and the inhibition at 10 µM turned out to be 62.5%.
`CNS(=O)(=O)c1ccc(-c2c(-c3ccc(S(C)(=O)=O)cc3)nc(C(F)(F)F)nc2N2CCOCC2)cc1` [Example 34, 4-{4-(Morpholin-4yl)-6-[4-(methylsulfonyl)phenyl]-2-(trifluoromethyl)pyrimidin-5-yl}-N-methylbenzenesulfonamide]: the inhibition at 10 µM with TNF-α was 80.9%.
As for `Cc1cnc(C(=O)N2CCN(c3nc(C(F)(F)F)nc(-c4ccc(S(C)(=O)=O)cc4)c3-c3ccccc3)CC2)cn1` [Example 36, 4-[4-(Methylsulfonyl)phenyl]-6-{4-[(5-methylpyrazin-2-yl)carbonyl]piperazin-1-yl}-5-phenyl-2-(trifluoromethyl)pyrimidine], in the experiment with TNF-α, the inhibition at 1 µM worked out at 51.3% and the inhibition at 10 µM came to 26.9%.
With `NS(=O)(=O)c1cccc(-c2c(-c3ccccc3)nc(C(F)(F)F)nc2N2CCN(c3ccccn3)CC2)c1` [Example 58], the inhibition at 1 µM in experiment [1] (1 μM) was determined as 11.2%; in experiment [2] (1 μM), 10.2%. Also, the values for the inhibition at 10 µM in experiment [1] (10 μM) and in experiment [2] (10 μM) were 2.62% and 9.59%, respectively.
With `CCOC(=O)C1CCN(c2nc(C(F)(F)F)nc(-c3ccc(F)cc3)c2-c2cccc(S(N)(=O)=O)c2)CC1` [Example 59, Ethyl-1-[5-(3-aminosulfonylphenyl)-6-(4-fluorophenyl)-2-(trifluoromethyl)pyrimidin-4-yl]piperidine-4-carboxylate], in the experiment on IL-6, the inhibition at 1 µM was 26.1% and the inhibition at 10 µM stood at 36.8%.
For `CCOC(=O)C1CCN(c2nc(C(F)(F)F)nc(-c3ccccc3)c2-c2cccc(S(N)(=O)=O)c2)CC1` [Example 61, Ethyl 1-[6-phenyl-5-(3-aminosulfonylphenyl)1-2-(trifluoromethyl)pyrimidin-4-yl]piperidine-4-carboxylate], in the experiment on IL-6, the inhibition at 1 µM is 24.5% and the inhibition at 10 µM came out at 54.5%.
Take `COc1cc(N2CCN(c3nc(C(F)(F)F)nc(-c4ccc(F)cc4)c3-c3cccc(S(N)(=O)=O)c3)CC2)nc(OC)n1` [Example 66, 4-[4-(2,6-Dimethoxypyrimidin-4-yl)piperazin-1-yl]-5-(3-aminosulfonylphenyl)-6-(4-fluorophenyl)-2-(trifluoromethyl)pyrimidine]: in the experiment on TNF-α, the inhibition at 1 µM was found to be 57.9% and the inhibition at 10 µM was determined as 80.7%.
For `CS(=O)(=O)N1CCN(c2nc(C(F)(F)F)nc(-c3ccc(F)cc3)c2-c2cccc(S(N)(=O)=O)c2)CC1` [Example 78, 3-[4-[4-(Methylsulfonyl)piperazin-1-yl]-6-(4-fluorophenyl)-2-(trifluoromethyl)pyrmidin-5-yl]benzenesulfonamide], in the experiment with IL-6, the inhibition at 1 µM worked out at 22.3% and the inhibition at 10 µM is 25.3%.
`NS(=O)(=O)c1cccc(-c2c(-c3ccccc3)nc(C(F)(F)F)nc2N2CCN(c3ccc([N+](=O)[O-])cn3)CC2)c1` [Example 117, 3-[6-{4-[5-(Nitro)pyridin-2-yl]piperazin-1-yl}-4-phenyl-2-(trifluoromethyl)pyrimidin-5-yl]benzenesulfonamide]: in the experiment on TNF-α, the inhibition at 1 µM was 69.7% and the inhibition at 10 µM turned out to be 86.5%.
As to `CC(=O)Nc1ccc(N2CCN(c3nc(C(F)(F)F)nc(-c4ccc(S(C)(=O)=O)cc4)c3-c3ccc(F)cc3)CC2)nc1` [Example 119, 4-[5-(Acetylamino)pyridin-2-yl]piperazin-1-yl-5-(4-fluorophenyl)-6-[4-(methylsulfonyl)phenyl]-2-(trifluoromethyl)pyrimidine], in the experiment on TNF-α, the inhibition at 1 µM worked out at 88.9% and the inhibition at 10 µM was 91.5%.
